The source of these data is US10246486B2, “Macrocyclic inhibitors of flaviviridae viruses” (Gilead Sciences, Inc., priority 2012, dated 2019).

Where two headings read alike, the source gives them in different places.

The conditions of series [1]: rcm bond, Hoveyda-Grubbs 2nd generation catalyst.
Series [2] deals with HCV replicon 1a (human hepatoma Huh-7 cell line harboring a HCV replicon). Kind of series: microbe, parasite or virus in culture. Format: cell-based. The following applies: for inhibition at 1 µM: Hepatitis C virus, Huh-7, 72 h, read-out: Replicon 1a % inhibition at 1 μm.

`CC(C)[C@@H]1NC(=O)[C@H](C)CC=CCOc2ccc(F)c(c2)[C@@H](C)OC(=O)[C@@H]2CCCN(N2)C(=O)[C@H](C)NC1=O` showed a ring closure, yield of all isomers in series [1] (from C=CCOc1ccc(F)c([C@@H](C)OC(=O)[C@@H]2CCCN(C(=O)[C@H](C)NC(=O)[C@@H](NC(=O)[C@H](C)CC=C)C(C)C)N2)c1, 1,2-dichloroethane, 3.0 mM, 83.0 °C, 2.0 h) of 20%.

On to `CO[C@@H]1/C=C/c2cc3cc(ccc3cn2)[C@@H](C)OC(=O)[C@@]2(C)CCCN(N2)C(=O)[C@H](C)NC(=O)[C@H](C(C)C)NC(=O)[C@@H]1C` [Example 33], for which the inhibition at 1 µM in series [2] was determined as 14%.

For `CO[C@@H]1CCC=Cc2ccc3c(c2)[C@@H](CC3)N(C)C(=O)[C@@H]2CCCN(N2)C(=O)[C@H](C)NC(=O)[C@H](C(C)C)NC(=O)[C@@H]1C`, the ring closure, yield of all isomers in series [1] (from C=CCC[C@@H](OC)[C@@H](C)C(=O)N[C@H](C(=O)N[C@@H](C)C(=O)N1CCC[C@@H](C(=O)N(C)[C@@H]2CCc3ccc(C=C)cc32)N1)C(C)C, 1,2-dichloroethane, 3.9 mM, 83.0 °C, 1.5 h) was found to be 5%.

`C[C@@H]1NC(=O)[C@H](CCc2ccccc2)NC(=O)CC=Cc2cc3cc(ccc3cn2)[C@@H](C)OC(=O)[C@@H]2CCCN(N2)C1=O`: the ring closure, yield of all isomers in series [1] (from C=Cc1cc2cc([C@@H](C)OC(=O)[C@@H]3CCCN(C(=O)[C@H](C)NC(=O)[C@H](CCc4ccccc4)NC(=O)C/C=C/C)N3)ccc2cn1, chlorobenzene, 4.81 mM, 110.0 °C, 3.5 h) was 12%.

On to `CC[C@@H]1C=Cc2cc3cc(ccc3cn2)[C@@H](C)OC(=O)[C@@H]2CCCN(N2)C(=O)[C@H](C)NC(=O)[C@H](C(C)C)NC1=O`, for which the ring closure, yield of all isomers in series [1] (from C=Cc1cc2cc([C@@H](C)OC(=O)[C@@H]3CCCN(C(=O)[C@H](C)NC(=O)[C@@H](NC(=O)[C@@H](/C=C/C)CC)C(C)C)N3)ccc2cn1, toluene, 3.0 mM, 120.0 °C, 4.0 h) amounted to 1%.

Take `CO[C@@H]1C=Cc2cc3cc(ccc3cn2)[C@@H](C)OC(=O)C2(C)CCCN(N2)C(=O)[C@H](C)NC(=O)[C@H](C(C)C)NC(=O)[C@@H]1C` (some centres unmarked): in series [1] (from C=Cc1cc2cc([C@@H](C)OC(=O)C3(C)CCCN(C(=O)[C@H](C)NC(=O)[C@@H](NC(=O)[C@H](C)[C@@H](/C=C/C)OC)C(C)C)N3)ccc2cn1, toluene, 3.06 mM, 111.0 °C, 3.5 h), the ring closure, yield of all isomers is 21%.

For the molecule `CO[C@@H]1C=Cc2cc3cc(ccc3cn2)[C@@H](C)NC(=O)[C@@H]2CCCN(N2)C(=O)[C@H](C)NC(=O)[C@H](C(C)C)NC(=O)[C@@H]1C`, the ring closure, yield of all isomers in series [1] (from C=Cc1cc2cc([C@@H](C)NC(=O)[C@@H]3CCCN(C(=O)[C@H](C)NC(=O)[C@@H](NC(=O)[C@H](C)[C@@H](/C=C/C)OC)C(C)C)N3)ccc2cn1, toluene, 3.33 mM, 110.0 °C, 8.0 h) was 26%.

On to `C[C@@H]1NC(=O)[C@H]([C@@H](C)O[Si](C)(C)C(C)(C)C)NC(=O)CC=Cc2cc3cc(ccc3cn2)[C@@H](C)OC(=O)[C@@H]2CCCN(N2)C1=O`, for which the ring closure, yield of all isomers in series [1] (from C=Cc1cc2cc([C@@H](C)OC(=O)[C@@H]3CCCN(C(=O)[C@H](C)NC(=O)[C@@H](NC(=O)C/C=C/C)[C@@H](C)O[Si](C)(C)C(C)(C)C)N3)ccc2cn1, toluene, 2.94 mM, 105.0 °C, 1.0 h) was determined as 42%.

In series [1] (from C=CCC(=O)N[C@H](C(=O)N[C@@H](C)C(=O)N1CCC[C@@H](C(=O)N[C@@H](c2ccc3cnc(C=C)cc3c2)C(F)(F)F)N1)C(C)C, toluene, 3.04 mM, 120.0 °C, 2.83 h), `CC(C)[C@@H]1NC(=O)CC=Cc2cc3cc(ccc3cn2)[C@@H](C(F)(F)F)NC(=O)[C@@H]2CCCN(N2)C(=O)[C@H](C)NC1=O` showed a ring closure, yield of all isomers of 3%.

Turning to `CC(C)[C@@H]1NC(=O)C(C)(C)/C=C/c2ccc3ccc(nc3c2)[C@@H](C(F)(F)F)NC(=O)[C@@H]2CCCN(N2)C(=O)[C@H](C)NC1=O` [Example 13], the “Replicon 1a % inhibition at 1 μm” value in series [2] is recorded as 87%.

Turning to `C[C@@H]1NC(=O)[C@H](Cc2ccccc2)NC(=O)CC=Cc2cc3cc(ccc3cn2)[C@@H](C)OC(=O)[C@@H]2CCCN(N2)C1=O`, the ring closure, yield of all isomers in series [1] (from C=Cc1cc2cc([C@@H](C)OC(=O)[C@@H]3CCCN(C(=O)[C@H](C)NC(=O)[C@H](Cc4ccccc4)NC(=O)C/C=C/C)N3)ccc2cn1, chlorobenzene, 4.96 mM, 110.0 °C, 3.0 h) turned out to be 12%.

In turn, `CC(C)[C@@H]1NC(=O)CC=Cc2ccc3ccc(cc3n2)[C@@H](C)OC(=O)[C@@H]2CCCN(N2)C(=O)[C@H](C)NC1=O` returned a ring closure, yield of all isomers in series [1] (from C=CCC(=O)N[C@H](C(=O)N[C@@H](C)C(=O)N1CCC[C@@H](C(=O)O[C@H](C)c2ccc3ccc(C=C)nc3c2)N1)C(C)C, 1,2-dichloroethane, 18.2 mM, 100.0 °C, 1.0 h) of 3%.

With `CC(C)[C@@H]1NC(=O)[C@H](C)C/C=C/COc2ccc(F)c(c2)[C@@H](C)OC(=O)[C@@H]2CCCN(N2)C(=O)[C@H](C)NC1=O` [Example 35], the inhibition at 1 µM in series [2] was 94%.

`CC(C)[C@@H]1NC(=O)CC=Cc2cc3cc(ccc3cn2)[C@@H](C)NC(=O)[C@@H]2CCCN(N2)C(=O)[C@H](C)NC1=O`: the ring closure, yield of all isomers in series [1] (from C=CCC(=O)N[C@H](C(=O)N[C@@H](C)C(=O)N1CCC[C@@H](C(=O)N[C@H](C)c2ccc3cnc(C=C)cc3c2)N1)C(C)C, toluene, 3.86 mM, 111.0 °C, 3.0 h) was 2.2%.

Consider `CO[C@@H]1CCC=Cc2cccc(c2)C2CCCCN2C(=O)[C@@H]2CCCN(N2)C(=O)[C@H](C)NC(=O)[C@H](C(C)C)NC(=O)[C@@H]1C` (some centres unmarked), for which the ring closure, yield of all isomers in series [1] (from C=CCC[C@@H](OC)[C@@H](C)C(=O)N[C@H](C(=O)N[C@@H](C)C(=O)N1CCC[C@@H](C(=O)N2CCCCC2c2cccc(C=C)c2)N1)C(C)C, 1,2-dichloroethane, 3.05 mM, 84.0 °C, 2.5 h) was 18%.

Molecule `C[C@@H]1NC(=O)[C@H](C2CCCCC2)NC(=O)CC=Cc2cc3cc(ccc3cn2)[C@@H](C)OC(=O)[C@@H]2CCCN(N2)C1=O` returned a ring closure, yield of all isomers in series [1] (from C=Cc1cc2cc([C@@H](C)OC(=O)[C@@H]3CCCN(C(=O)[C@H](C)NC(=O)[C@@H](NC(=O)C/C=C/C)C4CCCCC4)N3)ccc2cn1, toluene, 5.0 mM, 110.0 °C, 2.0 h) of 7%.

`CC(C)[C@@H]1NC(=O)CCC(C)(C)CC=Cc2cccc(c2)[C@@H](C)NC(=O)[C@@H]2CCCN(N2)C(=O)[C@H](C)NC1=O`: the ring closure, yield of all isomers in series [1] (from C=CCC(C)(C)CCC(=O)N[C@H](C(=O)N[C@@H](C)C(=O)N1CCC[C@@H](C(=O)N[C@H](C)c2cccc(C=C)c2)N1)C(C)C, 1,2-dichloroethane, 3.38 mM, 80.0 °C, 1.0 h) amounted to 8%.

For the molecule `CO[C@@H]1/C=C/COc2cccc(c2)[C@@H](C(C)C)NC(=O)[C@@H]2CCCN(N2)C(=O)[C@H](C)NC(=O)[C@H](C(C)C)NC(=O)[C@@H]1C` [Example 37, (E)-(2R,5S,11S,14S,17R,18R)-2,14-Diisopropyl-18-methoxy-11,17-di methyl-22-oxa-3,9,12,15,28-pentaaza-tricyclo[21.3.1.1*5,9]octacosa-1(27),19,23,25-tetraene-4,10,13,16-tetraone], the “Replicon 1a % inhibition at 1 μm” value in series [2] came out at 76%.

As for `CC(C)[C@@H]1NC(=O)[C@H](C)/C=C/c2ccc3ccc(nc3c2)[C@@H](C)OC(=O)[C@@H]2CCCN(N2)C(=O)[C@H](C)NC1=O` [Example 26], the “Replicon 1a % inhibition at 1 μm” value in series [2] amounted to 99%.

With `CC(C)[C@@H]1NC(=O)[C@H](C)[C@H](O[Si](C)(C)C(C)(C)C)CCC=Cc2cccc(c2)[C@@H](C)NC(=O)[C@@H]2CCCN(N2)C(=O)[C@H](C)NC1=O`, the ring closure, yield of all isomers in series [1] (from C=CCC[C@@H](O[Si](C)(C)C(C)(C)C)[C@@H](C)C(=O)N[C@H](C(=O)N[C@@H](C)C(=O)N1CCC[C@@H](C(=O)N[C@H](C)c2cccc(C=C)c2)N1)C(C)C, 1,2-dichloroethane, 2.8 mM, 80.0 °C, 1.0 h) turned out to be 43%.

On to `CC(C)[C@@H]1NC(=O)CCCC=Cc2cc3cc(ccc3cn2)[C@@H](C)OC(=O)[C@@H]2CCCN(N2)C(=O)[C@H](C)NC1=O`, for which the ring closure, yield of all isomers in series [1] (from C=CCCCC(=O)N[C@H](C(=O)N[C@@H](C)C(=O)N1CCC[C@@H](C(=O)O[C@H](C)c2ccc3cnc(C=C)cc3c2)N1)C(C)C, toluene, 2.41 mM, 111.0 °C, 0.5 h) was found to be 63%.

In series [1] (from C=CCCCCC(=O)N[C@H](C(=O)N[C@@H](C)C(=O)N1CCC[C@@H](C(=O)O[C@H](C)c2ccc3cnc(C=C)cc3c2)N1)C(C)C, toluene, 2.16 mM, 111.0 °C, 0.5 h), `CC(C)[C@@H]1NC(=O)CCCCC=Cc2cc3cc(ccc3cn2)[C@@H](C)OC(=O)[C@@H]2CCCN(N2)C(=O)[C@H](C)NC1=O` returned a ring closure, yield of all isomers of 31%.

For `C[C@@H]1NC(=O)[C@H](CO[Si](C)(C)C(C)(C)C)NC(=O)CC=Cc2cc3cc(ccc3cn2)[C@@H](C)OC(=O)[C@@H]2CCCN(N2)C1=O`, the ring closure, yield of all isomers in series [1] (from C=Cc1cc2cc([C@@H](C)OC(=O)[C@@H]3CCCN(C(=O)[C@H](C)NC(=O)[C@H](CO[Si](C)(C)C(C)(C)C)NC(=O)C/C=C/C)N3)ccc2cn1, toluene, 2.98 mM, 105.0 °C, 0.58 h) worked out at 38%.

In turn, `CC1C=Cc2cc3cc(ccc3cn2)[C@@H](C)OC(=O)[C@@H]2CCCN(N2)C(=O)[C@H](C)NC(=O)[C@H](C(C)C)NC1=O` (some centres unmarked) gave a ring closure, yield of all isomers in series [1] (from C=Cc1cc2cc([C@@H](C)OC(=O)[C@@H]3CCCN(C(=O)[C@H](C)NC(=O)[C@@H](NC(=O)C(C)C=C)C(C)C)N3)ccc2cn1, toluene, 2.6 mM, 111.0 °C, 3.0 h) of 1%.

Take `CC(C)[C@@H]1NC(=O)CC=Cc2cc3cc(ccc3cn2)[C@@H](C)OC(=O)[C@@H]2CCCN(N2)C(=O)[C@H](C)NC1=O`: the ring closure, yield of all isomers in series [1] (from C=Cc1cc2cc([C@@H](C)OC(=O)[C@@H]3CCCN(C(=O)[C@H](C)NC(=O)[C@@H](NC(=O)C/C=C/C)C(C)C)N3)ccc2cn1, toluene, 3.33 mM, 110.0 °C, 1.0 h) was 23.5%.

The molecule `CC(C)[C@@H]1NC(=O)[C@H](C)CC=Cc2cc3cc(ccc3cn2)[C@@H](C)OC(=O)[C@@H]2CCCN(N2)C(=O)[C@H](C)NC1=O` had a ring closure, yield of all isomers in series [1] (from C=CC[C@@H](C)C(=O)N[C@H](C(=O)N[C@@H](C)C(=O)N1CCC[C@@H](C(=O)O[C@H](C)c2ccc3cnc(C=C)cc3c2)N1)C(C)C, toluene, 3.0 mM, 120.0 °C, 3.0 h) of 22%.

One may read the inhibition as the share of the control response that was lost under treatment.
